ChEMBL document CHEMBL1122982, “Conformational factors in cardiac glycoside activity” (1985)

Species: Cavia porcellus
Assay: Relative […] activity evaluated in guinea pig left atria.
Type: functional

| SMILES | Relative ionotropic activity |
| --- | --- |
| C[C@H]1O[C@H]2O[C@@H]3C[C@@H]4CC[C@@H]5[C@H](CC[C@]6(C)[C@@H](C7=CC(=O)OC7)CC[C@]56O)[C@@]4(C)C[C@H]3O[C@@]2(O)[C@@H](O)[C@H]1O | 1 |
| C[C@@H]1O[C@@H](O[C@H]2CC[C@@]3(C)[C@@H](CC[C@@H]4[C@@H]3CC[C@]3(C)[C@@H](C5=CC(=O)OC5)CC[C@@]43O)C2)C[C@H](O)[C@@H]1O | 15 |
| C[C@]12CC[C@H](O)C[C@H]1CC[C@@H]1[C@@H]2CC[C@]2(C)[C@@H](C3=CC(=O)OC3)CC[C@]12O (stereo in doubt) [DIGITOXIGENIN] | 1 |
| C[C@]12CC[C@H](O)C[C@H]1CC[C@@H]1[C@@H]2CC[C@]2(C)[C@@H](C3=CC(=O)OC3)CC[C@]12O (stereo in doubt; V) [DIGITOXIGENIN] | 1.2 |
| C[C@@H]1O[C@@H](O[C@H]2CC[C@@]3(C)[C@H](CC[C@@H]4[C@@H]3CC[C@]3(C)[C@@H](C5=CC(=O)OC5)CC[C@]43O)C2)[C@H](O)[C@H](O)[C@H]1O (stereo in doubt; X) | 3 |
| C[C@@H]1O[C@@H](O[C@H]2CC[C@@]3(C)[C@H](CC[C@@H]4[C@@H]3CC[C@]3(C)[C@@H](C5=CC(=O)OC5)CC[C@]43O)C2)[C@H](O)[C@H](O)[C@H]1O (stereo in doubt; form 1) | 22 |
| C[C@@H]1C[C@H](O)[C@]2(O)O[C@@H]3C[C@@]4(C)[C@@H](CC[C@@H]5[C@@H]4CC[C@]4(C)[C@@H](C6=CC(=O)OC6)CC[C@]54O)C[C@H]3O[C@@H]2O1 (stereo in doubt; form 1) [Gomphoside] | 23 |
| C[C@@H]1O[C@@H](O[C@H]2CC[C@@]3(C)[C@H](CC[C@@H]4[C@@H]3CC[C@]3(C)[C@@H](C5=CC(=O)OC5)CC[C@]43O)C2)[C@H](O)[C@H](O)[C@H]1O (stereo in doubt; form 2) | 9 |
| C[C@@H]1C[C@H](O)[C@]2(O)O[C@@H]3C[C@@]4(C)[C@@H](CC[C@@H]5[C@@H]4CC[C@]4(C)[C@@H](C6=CC(=O)OC6)CC[C@]54O)C[C@H]3O[C@@H]2O1 (stereo in doubt; form 2) [Gomphoside] | 0.2 |
| C[C@@H]1CC(=O)[C@]2(O)O[C@@H]3C[C@@]4(C)[C@@H](CC[C@@H]5[C@@H]4CC[C@]4(C)[C@@H](C6=CC(=O)OC6)CC[C@]54O)C[C@H]3O[C@@H]2O1 [Didehydro Gomphoside] | 2.5 |
